Some test systems named below: NCI-H460 lung; OVCAR-3 ovarian; SNB-75 CNS; MALME-3M melanoma; SNB-19 CNS; HT29 colon; A498 renal; SK-MEL-28 melanoma; 786-0 renal; MOLT-4 leukemia.
Assay in all cases: NCI anticancer screen, dose series, 48 h

Several values for one entry are separate records, joined by “and”; a condition that tells them apart may be missing. Equal entries are not always repeated.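 1) Cells in 96-well plates. 2) Compound, 48 h, 5 concentrations. 3) Linear interpolation between surrounding doses. 4) Unreached endpoint = highest concentration. GI50 = concentration required for 50% inhibition of growth. TGI is the concentration that stops growth completely.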 A value given as a limit tells only on which side of the number the result lay.

Regarding `CCN(CC)CCOc1ccccc1/C=C/c1noc2ccccc12`, the TGI in the assay with NCI-H460 lung is 25.3 µM; with OVCAR-3 ovarian, 38.1 µM; with SNB-75 CNS, 22.2 µM; with MALME-3M melanoma, 13.9 µM; in the assay with SNB-19 CNS, 26.7 µM; with HT29 colon, 16 µM. The TGI in the assay with A498 renal was 31.3 µM; in the assay on SK-MEL-28 melanoma it was 21.1 µM; in the assay with 786-0 renal it was 26.7 µM; with MOLT-4 leukemia, 76.7 µM.
For `Nc1nc(OCc2cc(Br)cs2)c2[nH]cnc2n1`, the GI50 in the assay on NCI-H460 lung is 25 µM; in the assay on OVCAR-3 ovarian it was 28.1 µM; in the assay on SNB-75 CNS it was 15.7 µM; in the assay with MALME-3M melanoma, 17.6 µM; with SNB-19 CNS, 37.6 µM; in the assay with HT29 colon, 28.9 µM. For the same compound, the GI50 is 11 µM in the assay on A498 renal, 29.3 µM in the assay with SK-MEL-28 melanoma, 22.2 µM in the assay on 786-0 renal and 28.5 µM with MOLT-4 leukemia. Further, the TGI is > 100 µM in the assay with NCI-H460 lung; > 100 µM in the assay on OVCAR-3 ovarian; 90.2 µM in the assay on SNB-75 CNS; 97.5 µM in the assay with MALME-3M melanoma; > 100 µM in the assay on SNB-19 CNS; > 100 µM in the assay with HT29 colon. The TGI with A498 renal was 48.3 µM; with SK-MEL-28 melanoma, > 100 µM; with 786-0 renal, > 100 µM; in the assay with MOLT-4 leukemia, > 100 µM.
In the case of `O=[N+]([O-])c1ccc(Sc2ncnc3nc[nH]c23)c2nonc12`, the GI50 with NCI-H460 lung was 9.73 µM; in the assay with OVCAR-3 ovarian it was 0.714 µM; with SNB-75 CNS, 1.83 µM; with MALME-3M melanoma it was 13.1 µM; with SNB-19 CNS, 20.8 µM; in the assay with HT29 colon, 3.88 µM. Moreover, the GI50 was 8.46 µM with A498 renal, 5.79 µM in the assay on SK-MEL-28 melanoma, 1.74 µM with 786-0 renal and 2.07 µM with MOLT-4 leukemia. The TGI with NCI-H460 lung was 35.2 µM; with OVCAR-3 ovarian it was 16.6 µM; in the assay on SNB-75 CNS it was 14 µM; in the assay with MALME-3M melanoma, > 100 µM; with SNB-19 CNS it was 41.9 µM; in the assay with HT29 colon, 20.6 µM. For the same compound, the TGI in the assay with A498 renal is 20.5 µM; with SK-MEL-28 melanoma, 18.5 µM; with 786-0 renal, 5.16 µM; in the assay with MOLT-4 leukemia it was 15.7 µM.
Consider `CC1SC2=NC3=C(c4ccccc4C3=O)C(c3ccc(Cl)cc3)N2C1=O` (centres undefined), for which the TGI in the assay with NCI-H460 lung, with OVCAR-3 ovarian, with SNB-75 CNS, in the assay with MALME-3M melanoma, with SNB-19 CNS and in the assay with HT29 colon was > 100 µM each time. For the same compound, the TGI in the assay with A498 renal, in the assay on SK-MEL-28 melanoma, in the assay on 786-0 renal and with MOLT-4 leukemia was > 100 µM throughout.
Consider `O=CNc1ncn[nH]1`, for which the TGI in the assay on NCI-H460 lung, with OVCAR-3 ovarian, in the assay with SNB-75 CNS, in the assay with MALME-3M melanoma, in the assay on SNB-19 CNS and with HT29 colon was > 100 µM in each case. Besides, the TGI in the assay with A498 renal, with SK-MEL-28 melanoma, with 786-0 renal and with MOLT-4 leukemia was > 100 µM each time.
On to `CC1(C)CCC2=C(O1)c1ccccc1C(=O)C2=O`, for which the GI50 in the assay with NCI-H460 lung is 1.88 µM and 0.323 µM; in the assay on OVCAR-3 ovarian, 1.31 µM; in the assay on SNB-75 CNS, 1.64 µM; in the assay on MALME-3M melanoma, 1.51 µM; in the assay with SNB-19 CNS it was 1.6 µM and 1.71 µM; in the assay with HT29 colon, 3.43 µM. Further, the GI50 in the assay on SK-MEL-28 melanoma was 1.88 µM and 0.406 µM; in the assay with 786-0 renal, 1.99 µM; with MOLT-4 leukemia, 2.67 µM. Further, the TGI in the assay with NCI-H460 lung was 3.69 µM and 1.15 µM; in the assay on OVCAR-3 ovarian, 2.9 µM and 0.698 µM; in the assay on SNB-75 CNS it was 3.01 µM and 1.35 µM; in the assay with MALME-3M melanoma it was 2.84 µM and 0.974 µM; in the assay with SNB-19 CNS it was 3.08 µM and 3.11 µM; in the assay on HT29 colon, > 100 µM. Further, the TGI with A498 renal was 11.3 µM; with SK-MEL-28 melanoma it was 3.39 µM and 1.44 µM; in the assay with 786-0 renal it was 3.94 µM and 2.68 µM; in the assay on MOLT-4 leukemia, 7.92 µM.
Consider `CS(=O)(=O)Nc1ccc(-c2cc(-c3ccccc3)cc(C(N)=O)c2N)cc1`, for which the GI50 with NCI-H460 lung is > 25 µM; with OVCAR-3 ovarian it was > 23.8 µM; with SNB-75 CNS, 8.89 µM; in the assay with MALME-3M melanoma it was > 25 µM; with SNB-19 CNS, > 25 µM; with HT29 colon, > 25 µM. For the same compound, the GI50 with A498 renal was > 20.5 µM; in the assay with SK-MEL-28 melanoma it was > 25 µM; in the assay on 786-0 renal it was > 25 µM; with MOLT-4 leukemia it was 19.5 µM. Also, the TGI with NCI-H460 lung, in the assay on OVCAR-3 ovarian, in the assay with SNB-75 CNS, with MALME-3M melanoma, with SNB-19 CNS and in the assay with HT29 colon was > 25 µM in each case. For the same compound, the TGI in the assay with A498 renal, with SK-MEL-28 melanoma, in the assay on 786-0 renal and in the assay on MOLT-4 leukemia was > 25 µM throughout.
For the compound `NS(=O)(=O)c1ccc(NC2=CC(=O)C(=O)c3ccccc32)cc1`, the TGI with NCI-H460 lung, with OVCAR-3 ovarian, in the assay with SNB-75 CNS, with MALME-3M melanoma, with SNB-19 CNS and with HT29 colon was > 100 µM throughout. The TGI with A498 renal, with SK-MEL-28 melanoma, in the assay with 786-0 renal and with MOLT-4 leukemia was > 100 µM each time.
On to `NC1CCC(Nc2nc(NCc3ccc(-c4cccs4)nc3)c3ncn(C4CCCC4)c3n2)CC1` (centres undefined), for which the GI50 is 0.0913 µM with NCI-H460 lung; 0.0492 µM in the assay on OVCAR-3 ovarian; 0.016 µM with SNB-75 CNS; 0.122 µM in the assay on MALME-3M melanoma; 0.0302 µM in the assay with SNB-19 CNS; < 0.0143 µM in the assay with HT29 colon. The GI50 is 0.0725 µM with A498 renal, 0.0296 µM in the assay on SK-MEL-28 melanoma, 0.122 µM with 786-0 renal and 0.025 µM in the assay on MOLT-4 leukemia. Also, the TGI in the assay with NCI-H460 lung was found to be 2.19 µM; with OVCAR-3 ovarian it was 0.731 µM; in the assay on SNB-75 CNS it was 0.0588 µM; with MALME-3M melanoma, 0.523 µM; with SNB-19 CNS it was 3.75 µM; in the assay with HT29 colon, 0.315 µM. The TGI amounted to 0.225 µM in the assay on A498 renal, 0.117 µM with SK-MEL-28 melanoma, 1.12 µM in the assay on 786-0 renal and 0.502 µM in the assay on MOLT-4 leukemia.

(Values after PubChem BioAssay (NCI).)
